In US7238689B2, “Isoxazoline derivative and herbicide comprising the same as active ingredient” (Ihara Chemical Industry Co., Ltd., priority 2001, dated 2007):

What was measured:
Assay type in all cases: in vivo
Set-up in all cases: scale not given here
[1] = system: Echinochloa oryzicola Vasing; experiment: Herbicidal effect by paddy field soil treatment; settings: wettable powder, active ingredient 1000 g/ha, examined at the 21st day from the treatment
In short: (§1)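 Seeds sown in puddled paddy soil under 3 cm of water; the next day wettable powders diluted in water were dropped onto the water surface at 1,000 g active ingredient/ha. Plants grown in a greenhouse, with herbicidal effect scored on day 21 against a rating standard.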

[2] = system: Monochoria vaginalis (Murm. f.) Presl var. plantaginea (Roxb.) Solms-Laub.; experiment: Herbicidal effect by paddy field soil treatment; settings: wettable powder, active ingredient 1000 g/ha, examined at the 21st day from the treatment
In short: as §1

[3] = system: Echinochloa crus-galli (L.) Beauv. var. crusgalli; experiment: Herbicidal effect by upland field soil treatment; settings: active ingredient 1000 g/ha, examined at 21st day from treatment
Description: (§2) An upland field soil was filled in a plastic pot of 80 cm^2. Seeds of Echinochloa crus-galli (L.) Beauv. var. crusgalli and Setaria viridis (L.) Beauv. were sowed, followed by covering with the same soil. […] Then, breeding was made in a greenhouse, and the herbicidal effect of each wettable powder was examined at the 21st day from the treatment in accordance with the standard shown in Table 21.

[4] = system: Setaria viridis (L.) Beauv.; experiment: Herbicidal effect by upland field soil treatment; settings: active ingredient 1000 g/ha, examined at 21st day from treatment
Description: as §2

[5] = system: Echinochloa crus-galli (L.) Beauv. var. crus-galli; experiment: Herbicidal effect by upland foliage treatment; settings: active ingredient 1000 g/ha, examined at 14th day from treatment
Method: (§3) A sand was filled in a plastic pot of 80 cm^2. Seeds of Echinochloa crus-galli (L.) Beauv. var. crus-galli and Setaria viridis (L.) Beauv. were sowed. Breeding was made in a greenhouse for 2 weeks. Wettable powders produced in accordance with the Formulation 1 were diluted with water and sprayed on the whole foliage of plants from above the plants using a small sprayer in an amount of 1,000 liters per 1 hectare so that the amount of each active ingredient became 1,000 g per 1 hectare. Then, breeding was made in the greenhouse, and the herbicidal effect of each wettable powder was examined at the 14th day from the treatment in accordance with the standard shown in Table 21.

[6] = system: Setaria viridis (L.) Beauv.; experiment: Herbicidal effect by upland foliage treatment; settings: active ingredient 1000 g/ha, examined at 14th day from treatment
Method: as §3

Compound: Cc1nn(C)c(CS(=O)(=O)C2=NOC(C)(C)C2)c1Cl [5-0001]
- Herbicidal effect index, Echinochloa oryzicola Vasing [1]: 5
- Herbicidal effect index, Monochoria vaginalis (Burm. F.) Presl var. plantaginea (Roxb.) Solms-Laub. [2]: 5
- herbicidal effect (index per standard of Table 21), Echinochloa curs-galli (L.) Beauv. Var. crus-galli [3]: 5
- herbicidal effect (index per standard of Table 21), Setaria viridis (L.) Beauv. [4]: 5
- herbicidal effect (index per standard of Table 21), Echinochloa curs-galli (L.) Beauv. Var. crus-galli [5]: 5
- herbicidal effect (index per standard of Table 21), Setaria viridis (L.) Beauv. [6]: 4

Compound: Cn1nc(C(F)(F)F)c(CS(=O)(=O)C2=NOC(C)(C)C2)c1OC1CCCCC1 [3-0049]
- Herbicidal effect index, Echinochloa oryzicola Vasing [1]: 5
- Herbicidal effect index, Monochoria vaginalis (Burm. F.) Presl var. plantaginea (Roxb.) Solms-Laub. [2]: 5
- herbicidal effect (index per standard of Table 21), Echinochloa curs-galli (L.) Beauv. Var. crus-galli [3]: 5
- herbicidal effect (index per standard of Table 21), Setaria viridis (L.) Beauv. [4]: 5
- herbicidal effect (index per standard of Table 21), Echinochloa curs-galli (L.) Beauv. Var. crus-galli [5]: 4
- herbicidal effect (index per standard of Table 21), Setaria viridis (L.) Beauv. [6]: 4

Compound: COc1c(CS(=O)(=O)C2=NOC(C)(C)C2)c(C)cc[n+]1[O-] [7-0009]
- Herbicidal effect index, Echinochloa oryzicola Vasing [1]: 5
- Herbicidal effect index, Monochoria vaginalis (Burm. F.) Presl var. plantaginea (Roxb.) Solms-Laub. [2]: 5
- herbicidal effect (index per standard of Table 21), Echinochloa curs-galli (L.) Beauv. Var. crus-galli [3]: 5
- herbicidal effect (index per standard of Table 21), Setaria viridis (L.) Beauv. [4]: 5
- herbicidal effect (index per standard of Table 21), Echinochloa curs-galli (L.) Beauv. Var. crus-galli [5]: 4
- herbicidal effect (index per standard of Table 21), Setaria viridis (L.) Beauv. [6]: 4

Compound: Cc1noc(C)c1CS(=O)(=O)C1=NOC(C)(C)C1 [4-0005]
- Herbicidal effect index, Echinochloa oryzicola Vasing [1]: 5
- Herbicidal effect index, Monochoria vaginalis (Burm. F.) Presl var. plantaginea (Roxb.) Solms-Laub. [2]: 5
- herbicidal effect (index per standard of Table 21), Echinochloa curs-galli (L.) Beauv. Var. crus-galli [3]: 5
- herbicidal effect (index per standard of Table 21), Setaria viridis (L.) Beauv. [4]: 5
- herbicidal effect (index per standard of Table 21), Echinochloa curs-galli (L.) Beauv. Var. crus-galli [5]: 5
- herbicidal effect (index per standard of Table 21), Setaria viridis (L.) Beauv. [6]: 4

Compound: Cn1ncc(CS(=O)(=O)C2=NOC(C)(C)C2)c1Cl [3-0035]
- Herbicidal effect index, Echinochloa oryzicola Vasing [1]: 5
- Herbicidal effect index, Monochoria vaginalis (Burm. F.) Presl var. plantaginea (Roxb.) Solms-Laub. [2]: 5
- herbicidal effect (index per standard of Table 21), Echinochloa curs-galli (L.) Beauv. Var. crus-galli [3]: 5
- herbicidal effect (index per standard of Table 21), Setaria viridis (L.) Beauv. [4]: 5
- herbicidal effect (index per standard of Table 21), Echinochloa curs-galli (L.) Beauv. Var. crus-galli [5]: 4
- herbicidal effect (index per standard of Table 21), Setaria viridis (L.) Beauv. [6]: 4

Compound: CCCn1nc(C(F)(F)F)c(CS(=O)(=O)C2=NOC(C)(C)C2)c1Cl [3-0077]
- herbicidal effect (index per standard of Table 21), Echinochloa curs-galli (L.) Beauv. Var. crus-galli [5]: 5
- herbicidal effect (index per standard of Table 21), Setaria viridis (L.) Beauv. [6]: 4

Compound: 5,5-dimethyl-[(4-methoxy-6-trifluoromethylpyrimidin-5-yl)-methylsulfonyl]-2-isoxazoline [8-0001]
- Herbicidal effect index, Echinochloa oryzicola Vasing [1]: 5
- Herbicidal effect index, Monochoria vaginalis (Burm. F.) Presl var. plantaginea (Roxb.) Solms-Laub. [2]: 5
- herbicidal effect (index per standard of Table 21), Echinochloa curs-galli (L.) Beauv. Var. crus-galli [3]: 5
- herbicidal effect (index per standard of Table 21), Setaria viridis (L.) Beauv. [4]: 5
- herbicidal effect (index per standard of Table 21), Echinochloa curs-galli (L.) Beauv. Var. crus-galli [5]: 5
- herbicidal effect (index per standard of Table 21), Setaria viridis (L.) Beauv. [6]: 4

Compound: Cc1cc[n+]([O-])c(Cl)c1CS(=O)(=O)C1=NOC(C)(C)C1 [7-0008]
- Herbicidal effect index, Echinochloa oryzicola Vasing [1]: 5
- Herbicidal effect index, Monochoria vaginalis (Burm. F.) Presl var. plantaginea (Roxb.) Solms-Laub. [2]: 5
- herbicidal effect (index per standard of Table 21), Echinochloa curs-galli (L.) Beauv. Var. crus-galli [3]: 5
- herbicidal effect (index per standard of Table 21), Setaria viridis (L.) Beauv. [4]: 5
- herbicidal effect (index per standard of Table 21), Echinochloa curs-galli (L.) Beauv. Var. crus-galli [5]: 5
- herbicidal effect (index per standard of Table 21), Setaria viridis (L.) Beauv. [6]: 5

Compound: C=CCn1nc(C(F)(F)F)c(CS(=O)(=O)C2=NOC(C)(C)C2)c1Cl [3-0104]
- herbicidal effect (index per standard of Table 21), Echinochloa curs-galli (L.) Beauv. Var. crus-galli [5]: 5
- herbicidal effect (index per standard of Table 21), Setaria viridis (L.) Beauv. [6]: 4

Compound: Cc1nn(C)c(C)c1CS(=O)(=O)C1=NOC(C)(C)C1 [3-0036]
- herbicidal effect (index per standard of Table 21), Echinochloa curs-galli (L.) Beauv. Var. crus-galli [3]: 5
- herbicidal effect (index per standard of Table 21), Setaria viridis (L.) Beauv. [4]: 5
- herbicidal effect (index per standard of Table 21), Echinochloa curs-galli (L.) Beauv. Var. crus-galli [5]: 4
- herbicidal effect (index per standard of Table 21), Setaria viridis (L.) Beauv. [6]: 4

Compound: C#CCn1nc(C(F)(F)F)c(CS(=O)(=O)C2=NOC(C)(C)C2)c1Cl [3-0106]
- herbicidal effect (index per standard of Table 21), Echinochloa curs-galli (L.) Beauv. Var. crus-galli [5]: 5
- herbicidal effect (index per standard of Table 21), Setaria viridis (L.) Beauv. [6]: 4

Compound: CC(C)n1nc(Cl)c(CS(=O)(=O)C2=NOC(C)(C)C2)c1C(F)(F)F [3-0076]
- herbicidal effect (index per standard of Table 21), Echinochloa curs-galli (L.) Beauv. Var. crus-galli [5]: 5
- herbicidal effect (index per standard of Table 21), Setaria viridis (L.) Beauv. [6]: 4

Compound: CC1(C)CC(S(=O)(=O)Cc2c(C(F)(F)F)nn(CC3CC3)c2Cl)=NO1 [3-0092]
- herbicidal effect (index per standard of Table 21), Echinochloa curs-galli (L.) Beauv. Var. crus-galli [5]: 4
- herbicidal effect (index per standard of Table 21), Setaria viridis (L.) Beauv. [6]: 4

Compound: CC1(C)CC(S(=O)(=O)Cc2c(Cl)nn(CC(N)=O)c2C(F)(F)F)=NO1 [3-0139]
- Herbicidal effect index, Echinochloa oryzicola Vasing [1]: 5
- Herbicidal effect index, Monochoria vaginalis (Burm. F.) Presl var. plantaginea (Roxb.) Solms-Laub. [2]: 5
- herbicidal effect (index per standard of Table 21), Echinochloa curs-galli (L.) Beauv. Var. crus-galli [3]: 5
- herbicidal effect (index per standard of Table 21), Setaria viridis (L.) Beauv. [4]: 5

Compound: CCOCCn1nc(C(F)(F)F)c(CS(=O)(=O)C2=NOC(C)(C)C2)c1Cl [3-0126]
- Herbicidal effect index, Echinochloa oryzicola Vasing [1]: 5
- Herbicidal effect index, Monochoria vaginalis (Burm. F.) Presl var. plantaginea (Roxb.) Solms-Laub. [2]: 5
- herbicidal effect (index per standard of Table 21), Echinochloa curs-galli (L.) Beauv. Var. crus-galli [3]: 5
- herbicidal effect (index per standard of Table 21), Setaria viridis (L.) Beauv. [4]: 5

Compound: C#CCn1nc(Cl)c(CS(=O)(=O)C2=NOC(C)(C)C2)c1C(F)(F)F [3-0107]
- herbicidal effect (index per standard of Table 21), Echinochloa curs-galli (L.) Beauv. Var. crus-galli [5]: 5
- herbicidal effect (index per standard of Table 21), Setaria viridis (L.) Beauv. [6]: 5

Compound: CC1(C)CC(S(=O)(=O)Cc2cccc3ccsc23)=NO1 [10-0015]
- Herbicidal effect index, Echinochloa oryzicola Vasing [1]: 5
- Herbicidal effect index, Monochoria vaginalis (Burm. F.) Presl var. plantaginea (Roxb.) Solms-Laub. [2]: 5
- herbicidal effect (index per standard of Table 21), Echinochloa curs-galli (L.) Beauv. Var. crus-galli [3]: 5
- herbicidal effect (index per standard of Table 21), Setaria viridis (L.) Beauv. [4]: 5

Compound: Cn1nc(C(F)(F)F)c(CS(=O)(=O)C2=NOC(C)(C)C2)c1Oc1ccccc1 [3-0060]
- Herbicidal effect index, Echinochloa oryzicola Vasing [1]: 5
- Herbicidal effect index, Monochoria vaginalis (Burm. F.) Presl var. plantaginea (Roxb.) Solms-Laub. [2]: 5
- herbicidal effect (index per standard of Table 21), Echinochloa curs-galli (L.) Beauv. Var. crus-galli [3]: 5
- herbicidal effect (index per standard of Table 21), Setaria viridis (L.) Beauv. [4]: 5

Compound: CC1(C)CC(S(=O)(=O)Cn2nnc3ccccc32)=NO1 [10-0004]
- Herbicidal effect index, Echinochloa oryzicola Vasing [1]: 5
- Herbicidal effect index, Monochoria vaginalis (Burm. F.) Presl var. plantaginea (Roxb.) Solms-Laub. [2]: 5
- herbicidal effect (index per standard of Table 21), Echinochloa curs-galli (L.) Beauv. Var. crus-galli [3]: 5
- herbicidal effect (index per standard of Table 21), Setaria viridis (L.) Beauv. [4]: 5

Compound: CSCn1nc(Cl)c(CS(=O)(=O)C2=NOC(C)(C)C2)c1C(F)(F)F [3-0129]
- Herbicidal effect index, Echinochloa oryzicola Vasing [1]: 5
- Herbicidal effect index, Monochoria vaginalis (Burm. F.) Presl var. plantaginea (Roxb.) Solms-Laub. [2]: 5
- herbicidal effect (index per standard of Table 21), Echinochloa curs-galli (L.) Beauv. Var. crus-galli [3]: 5
- herbicidal effect (index per standard of Table 21), Setaria viridis (L.) Beauv. [4]: 5

Compound: Cc1nn(-c2ccccc2)c(CS(=O)(=O)C2=NOC(C)(C)C2)c1OC(F)F [5-0006]
- Herbicidal effect index, Echinochloa oryzicola Vasing [1]: 5
- Herbicidal effect index, Monochoria vaginalis (Burm. F.) Presl var. plantaginea (Roxb.) Solms-Laub. [2]: 5
- herbicidal effect (index per standard of Table 21), Echinochloa curs-galli (L.) Beauv. Var. crus-galli [3]: 5
- herbicidal effect (index per standard of Table 21), Setaria viridis (L.) Beauv. [4]: 5

Compound: CC1(C)CC(S(=O)(=O)Cc2c(Cl)sc(Cl)c2Cl)=NO1 [2-0006]
- Herbicidal effect index, Echinochloa oryzicola Vasing [1]: 5
- Herbicidal effect index, Monochoria vaginalis (Burm. F.) Presl var. plantaginea (Roxb.) Solms-Laub. [2]: 5
- herbicidal effect (index per standard of Table 21), Echinochloa curs-galli (L.) Beauv. Var. crus-galli [3]: 5
- herbicidal effect (index per standard of Table 21), Setaria viridis (L.) Beauv. [4]: 4

Compound: C=CCn1nc(Cl)c(CS(=O)(=O)C2=NOC(C)(C)C2)c1C(F)(F)F [3-0105]
- herbicidal effect (index per standard of Table 21), Echinochloa curs-galli (L.) Beauv. Var. crus-galli [5]: 5
- herbicidal effect (index per standard of Table 21), Setaria viridis (L.) Beauv. [6]: 4
